Measured values reported in ChEMBL document CHEMBL3817807, “Sequence-specific DNA binding by long hairpin pyrrole-imidazole polyamides containing an 8-amino-3,6-dioxaoctanoic acid unit” (Bioorg Med Chem, 2016).
Activity calls are given as the source filed them.

Legend:
[1] = Binding affinity to AAAGAAGGC oligonucleotide DNA sequence (unknown origin) at 50 nM incubated for 16 hrs by PCR based Bind-n-Seq analysis
[2] = Binding affinity to AGAAAGGCG oligonucleotide DNA sequence (unknown origin) at 50 nM incubated for 16 hrs by PCR based Bind-n-Seq analysis
[3] = Binding affinity to AAAGGGTAA oligonucleotide DNA sequence (unknown origin) at 50 nM incubated for 16 hrs by PCR based Bind-n-Seq analysis
[4] = Binding affinity to AAAGGAATC oligonucleotide DNA sequence (unknown origin) at 50 nM incubated for 16 hrs by PCR based Bind-n-Seq analysis
[5] = Binding affinity to GGGCAGAAA oligonucleotide DNA sequence (unknown origin) at 50 nM incubated for 16 hrs by PCR based Bind-n-Seq analysis
[6] = Binding affinity to CCTTTCGGC oligonucleotide DNA sequence (unknown origin) at 50 nM incubated for 16 hrs by PCR based Bind-n-Seq analysis
[7] = Binding affinity to AAAGGCCGA oligonucleotide DNA sequence (unknown origin) at 50 nM incubated for 16 hrs by PCR based Bind-n-Seq analysis
[8] = Binding affinity to TATGGCTCA oligonucleotide DNA sequence (unknown origin) at 50 nM incubated for 16 hrs by PCR based Bind-n-Seq analysis
[9] = Binding affinity to ATCGGCAAA oligonucleotide DNA sequence (unknown origin) at 50 nM incubated for 16 hrs by PCR based Bind-n-Seq analysis
[10] = Binding affinity to AGGCGAAAT oligonucleotide DNA sequence (unknown origin) at 50 nM incubated for 16 hrs by PCR based Bind-n-Seq analysis

Measured: Activity

CC(=O)Nc1cn(C)c(C(=O)Nc2cn(C)c(C(=O)Nc3cc(C(=O)NCCC(=O)Nc4cn(C)c(C(=O)Nc5cc(C(=O)Nc6cc(C(=O)NCCCC(=O)Nc7cn(C)c(C(=O)Nc8cc(C(=O)NCCOCCOCC(=O)Nc9cn(C)c(C(=O)Nc%10cc(C(=O)Nc%11cc(C(=O)NCCC(=O)NCCCN(C)CCCNC(=O)CCOCCOCCOCCOCCOCCOCCOCCOCCOCCOCCOCCOCCNC(=O)CCCC[C@@H]%12SC[C@@H]%13NC(=O)N[C@@H]%13%12)n(C)c%11)n(C)c%10)n9)n(C)c8)n7)n(C)c6)n(C)c5)n4)n(C)c3)n2)n1
active: all assays above
